Results: patent publication US20030106085A1, “Disruption of the prostaglandin E synthase 2 gene” (Pfizer Inc., priority 2001, published 2003)

Tests used:
[1] = test system: PGES2 KO clone #22F ES cell-derived macrophages; experiment: Rescue of wild type phenotype (cell density) in PGES2 KO ES cell-derived macrophages by PGE2 added to the media; type: cell-based, murine
Protocol: DBA-252 WT (+/+) and PGES KO (−/−) ES cell clones #22D, #22F and #70V were used to develop ES cell in vitro differentiated (IVD) macrophages. WT and KO PGES2 ES cell clones were maintained without PEF feeders in SCML. Two days prior to embryoid body (EB) formation, all ES cell lines were switched to l-SCML medium that contained a base medium of Iscove's MDM (ILTI, #31980-030) supplemented with 15% ES cell qualified fetal calf serum, 0.2 mM L-glutamine, 0.1 mM MEM non-essential amino acids, 1000 u/ml recombinant murine leukemia inhibitory factor, 50 μg/ml Gentamycin and 0.1 mM 2-Mercaptoethanol (Sigma #M-7522).
Embryoid body stage: The WT and KO ES cell clones were dissociated and grown in suspension culture in bacteriology 100 mm dishes in MacEB medium that contained the base medium Iscove's MDM supplemented with 15% ES cell qualified fetal calf serum, 2 mM L-glutamine, 300 μg transferrin (ILTI, #13008-016), 50 μg/ml L-ascorbic acid (Sigma Chemical, #A-4403), 5% PFHM-II (ILTI, #12040-093), 4×10^−4 M monothioglycerol (MTG), and 50 μg/ml Gentamycin. ES cells were grown in suspension for 6 days to form the EB cell aggregates.
Precursor macrophage stage: The EBs were dissociated on day 6 and plated in tissue culture dishes in Mac I medium that contained the base medium Iscove's MDM supplemented with 10% FBS (ILTI, #10439-024), 5% PFHM-II (ILTI, #12040-093), 2 mM L-glutamine, 3 ng/ml M-CSF (Sigma #M-9170), 1 ng/ml IL-3 (PeproTech, Inc., Rocky Hill, N.J., #213-13) and 50 μg/ml Gentamycin. When this cell population became confluent, the macrophage precursors developed as non-adherent clusters and could be harvested every other day from day 14 through day 30.
ES cell-derived macrophages: Non-adherent clusters of macrophage precursors were harvested from the media by centrifugation. Cell pellets were resuspended in Mac II media that contained the base medium Iscove's MDM supplemented with 10% FBS, 5% PFHM-II, 2 mM L-glutamine, 3 ng/ml M-CSF, and 50 μg/ml Gentamycin. […]

[2] = test system: PGES2 KO and wild type mice; experiment: Acetic acid-induced writhing (acute inflammation/pain model); type: in vivo; details: 10 mg/kg orally, one hour before 0.7% acetic acid i.p., vs vehicle
Protocol: PGES2 KO mice were profiled in two experimental models of inflammation, collagen-induced arthritis (chronic inflammation model) and acetic acid-induced writhing (acute inflammation/pain model). All experiments were performed with age/sex-matched animals propagated on a DBA1/lacJ genetic background. This genetic background is optimal for collagen-induced arthritis (CIA). The phenotype in CIA was further profiled by characterizing the immune responses of PGES2 KO and wild type animals by assessing antibody production and delayed-type hypersensitivity reactions. In summary, results of the CIA and acetic acid-induced writhing models indicate a role for PGES2 in PGE2-mediated chronic inflammation, acute inflammation, and acute inflammatory pain detection as opposed to neuropathic pain detection. Mice were randomized and dosed orally with either vehicle (0.5% (w/w) methylcellulose, Sigma Chemical, #M0512) or 10 mg/kg piroxicam (Sigma Chemical, #P5654). One hour later, 16 μl/g body weight of 0.7% acetic acid was administered intraperitoneally. The mice were placed in a 5-compartment box and the number of stretches was counted for 20 minutes following acetic acid injection.

SMILES | macrophage density ([1]; PGES2 KO clone 22F macrophages cultured in 10.0 μM PGE2, added at all stages of differentiation) | macrophage density compared to wild type ([1]; PGES2 KO clone #22F macrophages cultured in 0.1 μM PGE2, added at all stages of differentiation) | macrophage density compared to wild type ([1]; PGES2 KO clone #22F macrophages cultured in 1.0 μM PGE2, added at all stages of differentiation) | pain response (number of stretches counted for 20 minutes following acetic acid injection) ([2]; PGES2 KO mice) | pain response (number of stretches counted for 20 minutes following acetic acid injection) ([2]; wild type mice)
CCCCC[C@H](O)/C=C/[C@H]1[C@H](O)CC(=O)[C@@H]1C/C=C\CCCC(=O)O [PGE2, Prostaglandin E2] | approximately 75 % of wild type | equivalent in density to wild type | equivalent in density to wild type | – | –
CN1C(C(=O)Nc2ccccn2)=C(O)c2ccccc2S1(=O)=O [piroxicam] | – | – | – | had no effect | reduced the response
